Test results reported in patent publication US10077284B2, “UBA5 inhibitors” (THE GOVERNING COUNCIL OF THE UNIVERSITY OF TORONTO, priority 2014, dated 2018).
Several values for one entry are separate records, joined by “and”; a condition that tells them apart may be missing. Equal entries are not always repeated. Where two headings read alike, the source gives them in different places.

Tests used:
[1] = biological target: T1, Ub activating enzyme (UAE) (Homo sapiens, UniProt P22314); test: UAE transthiolation assay (Ub transfer to His6-UbcH6); assay type: biochemical
T1 construct: purchased Boston Biochem
T1 sequence (P22314 1-1058): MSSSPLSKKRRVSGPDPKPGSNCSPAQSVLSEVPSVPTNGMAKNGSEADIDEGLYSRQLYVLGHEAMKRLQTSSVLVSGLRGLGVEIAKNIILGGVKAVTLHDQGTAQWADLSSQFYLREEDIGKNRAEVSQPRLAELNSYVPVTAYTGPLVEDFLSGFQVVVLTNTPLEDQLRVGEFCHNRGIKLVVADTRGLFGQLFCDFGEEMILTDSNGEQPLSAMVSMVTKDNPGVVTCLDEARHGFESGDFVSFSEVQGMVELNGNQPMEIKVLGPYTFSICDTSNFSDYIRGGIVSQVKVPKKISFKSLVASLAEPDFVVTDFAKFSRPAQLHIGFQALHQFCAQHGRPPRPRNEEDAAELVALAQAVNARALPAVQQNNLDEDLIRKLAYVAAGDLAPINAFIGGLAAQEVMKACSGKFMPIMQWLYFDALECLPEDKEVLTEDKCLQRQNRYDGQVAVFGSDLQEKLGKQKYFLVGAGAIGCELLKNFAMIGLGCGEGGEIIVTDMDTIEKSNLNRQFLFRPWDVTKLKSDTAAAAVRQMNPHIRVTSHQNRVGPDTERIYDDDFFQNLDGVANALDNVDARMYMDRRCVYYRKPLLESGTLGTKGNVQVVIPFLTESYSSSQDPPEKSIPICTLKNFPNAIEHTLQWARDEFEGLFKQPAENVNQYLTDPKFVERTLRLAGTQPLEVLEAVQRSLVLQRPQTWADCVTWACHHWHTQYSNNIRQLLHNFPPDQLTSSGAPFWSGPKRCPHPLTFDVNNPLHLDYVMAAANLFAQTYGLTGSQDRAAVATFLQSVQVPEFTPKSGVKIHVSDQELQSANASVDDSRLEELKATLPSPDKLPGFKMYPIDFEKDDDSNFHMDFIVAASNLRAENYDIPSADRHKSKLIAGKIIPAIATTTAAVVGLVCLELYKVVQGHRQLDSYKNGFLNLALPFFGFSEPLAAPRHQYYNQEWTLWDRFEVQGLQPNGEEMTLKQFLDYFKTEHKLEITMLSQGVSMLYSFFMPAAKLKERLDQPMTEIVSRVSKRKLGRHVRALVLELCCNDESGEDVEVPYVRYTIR
Description: (§3) Initial rates were recorded over 30 second time intervals from 0 to 2.5 min (normal kinetics) or 0 to 5 min (inhibition kinetics). Reactions were initiated by the addition of ATP and stopped using 4× Laemmli sample buffer (BioRad). The generated protein conjugates were separated on a 10% non-degenerating SDS-polyacrylamide gel (4-15% gels were used for the UAE transthiolaton assay), followed by Western blot analysis, with the exception of GST-UBA5 where protein bands were detected using Coomassie™ Brilliant Blue R-250 staining or Stain-Free gel imaging for the enzymatic assays (Bio-Rad). Transfers for the UAE and NAE immunoblots were performed using nitrocellulose membranes and blocking and blotting was performed as described above with cellular protein extracts. The His6-tagged Ub-UBCH6 complex was detected using an anti-His mouse monoclonal primary antibody (1:500, abcam). A rabbit anti-NEDD8 polyclonal primary antibody (1:500, BostonBiochem) was used for the detection of the E2-NEDD8 complexes. […] Inhibitory data was fit to a dose-response curve (Y=Bottom+(Top−Bottom)/(1+10^(X-Log IC50))) using GraphPad Prism 6.

[2] = biological target: T2, NEDD8 activating enzyme (NAE) (Homo sapiens, UniProt Q8TBC4); test: NAE transthiolation assay (NEDD8 transfer to UbcH12); assay type: biochemical
T2 construct: purchased Boston Biochem
T2 sequence (Q8TBC4 1-463): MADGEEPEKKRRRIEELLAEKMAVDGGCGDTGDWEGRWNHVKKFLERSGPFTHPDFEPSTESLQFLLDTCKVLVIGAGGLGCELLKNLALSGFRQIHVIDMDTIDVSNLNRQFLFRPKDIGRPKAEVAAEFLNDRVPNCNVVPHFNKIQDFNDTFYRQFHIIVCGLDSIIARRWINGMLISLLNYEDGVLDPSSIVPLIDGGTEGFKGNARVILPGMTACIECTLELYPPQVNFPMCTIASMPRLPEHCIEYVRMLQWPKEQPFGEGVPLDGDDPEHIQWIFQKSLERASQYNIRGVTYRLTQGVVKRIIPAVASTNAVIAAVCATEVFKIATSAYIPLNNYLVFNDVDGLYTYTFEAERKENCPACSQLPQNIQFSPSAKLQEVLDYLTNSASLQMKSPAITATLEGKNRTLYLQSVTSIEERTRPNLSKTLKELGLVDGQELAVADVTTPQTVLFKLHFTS
T2 sequence (Q13564 1-534 partner): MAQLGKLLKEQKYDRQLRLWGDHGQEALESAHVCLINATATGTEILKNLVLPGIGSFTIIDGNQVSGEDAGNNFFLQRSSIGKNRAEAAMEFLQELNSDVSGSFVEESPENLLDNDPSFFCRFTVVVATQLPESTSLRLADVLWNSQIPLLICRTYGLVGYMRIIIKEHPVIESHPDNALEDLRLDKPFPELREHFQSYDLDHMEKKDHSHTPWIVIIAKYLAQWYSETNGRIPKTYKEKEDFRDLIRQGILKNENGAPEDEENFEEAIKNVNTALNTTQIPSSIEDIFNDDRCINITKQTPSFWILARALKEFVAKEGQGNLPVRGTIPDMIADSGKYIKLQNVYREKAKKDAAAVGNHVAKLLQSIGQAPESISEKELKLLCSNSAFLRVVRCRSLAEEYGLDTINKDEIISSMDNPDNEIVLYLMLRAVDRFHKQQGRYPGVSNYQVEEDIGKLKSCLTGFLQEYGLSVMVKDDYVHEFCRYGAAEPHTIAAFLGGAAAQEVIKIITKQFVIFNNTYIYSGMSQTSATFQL
Description: as §3

GST-UBA5 = biological target: T3, GST-UBA5 (Homo sapiens, UniProt Q9GZZ9); test: UBA5 transthiolation assay (UFC1-UFM1 conjugate formation); assay type: biochemical
T3 construct: made in house
T3 sequence (Q9GZZ9 whole entry): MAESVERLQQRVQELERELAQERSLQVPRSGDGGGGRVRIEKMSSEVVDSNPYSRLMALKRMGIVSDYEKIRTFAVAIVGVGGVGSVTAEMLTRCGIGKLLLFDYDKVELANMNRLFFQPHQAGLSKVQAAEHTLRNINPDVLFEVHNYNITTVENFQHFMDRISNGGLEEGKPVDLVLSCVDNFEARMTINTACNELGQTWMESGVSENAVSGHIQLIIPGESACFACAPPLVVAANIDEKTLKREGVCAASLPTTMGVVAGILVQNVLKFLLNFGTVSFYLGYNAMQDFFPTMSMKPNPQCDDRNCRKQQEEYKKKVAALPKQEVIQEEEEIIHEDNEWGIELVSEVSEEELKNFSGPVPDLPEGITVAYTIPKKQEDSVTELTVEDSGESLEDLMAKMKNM
Description: as §3

[3] = system: NEDD8 downstream protein labeling in A549 cells; settings: A549, increasing concentrations
Description: (§1) Cells were washed twice with cold PBS and protein extracts were prepared using RIPA buffer with a protease and phosphatase inhibitor cocktail (Roche #11836153001, #04906845001). Protein concentrations were determined using the BCA protein quantification technique (BCA Protein assay kit, Pierce). In each assay, 30 μg of whole cell protein extract was resolved on a 10% SDS-polyacrylamide gel and transferred to a PVDF membrane (Bio-Rad). The membranes were blocked with SuperBlock (Thermo scientific; No. 37515) for at least 1 hr followed by an overnight incubation in primary antibody. Blots were probed with antibodies against UBA5 (abcam; ab109227) and UFM-1 (abcam; ab09305) in a 1:1000 dilution, and anti-β-actin (1:5000 dilution; Cell Signaling, 3700S) was used as a loading control. Fluorescent labeled secondary antibodies anti-rabbit Alexa Fluor® 647 Conjugate (red, 1:5000) and anti-mouse Alexa Fluor® 488 Conjugate (green, 1:20,000) were used to detect bands (Cell Signaling; 4414S and 4408S, respectively). The bands were visualized and analyzed using Image lab software (Bio-Rad).
(§2) Bands were visualized using anti-rabbit Alexa Fluor® 647 (1:5000, for NEDD8 and NEDD8 conjugates) and anti-mouse Alexa Fluor® 488 (1:20,000, for actin) secondary antibodies.

[4] = system: NEDD8 downstream protein labeling in Sk-Luci6 cells; settings: Sk-Luci6, increasing concentrations
Description: as §1, §2

Which IC50 ([1]; n=3-6) does the source give for `Nc1ncnc2c1ncn2[C@@H]1O[C@H](C(=O)NCCCCCC(=O)N2CCNCCNCCNCC2)[C@@H](O)[C@H]1O.O=S(=O)([O-])C(F)(F)F.O=S(=O)([O-])C(F)(F)F.[Zn+2]` [Compound 1.5.Zn, (2S,3S,4R,5R)—N-(6-(1,4,7,10-tetraazacyclododecan-1-yl)-6-oxohexyl)-5-(6-amino-9H-purin-9-yl)-3,4-dihydroxytetrahydrofuran-2-carboxamide zinc trifluoromethanesulfonate] here?
The IC50 was 76.7 µM and 78.5 µM.

What about the “selectivity for UBA5 over UAE” value ([1]; ratio of IC50) of the same molecule?
Its value is > 20 fold and ~20 fold.

And the IC50 ([2]; n=3-6)?
Its IC50 is 103 µM and 66.8 µM.

And the “selectivity for UBA5 over NAE” value ([2]; ratio of IC50)?
The value was > 20 fold and ~20 fold.

And the IC50 (GST-UBA5; Table 1, transthiolation enzymatic assay, read-out: IC50)?
The IC50 was 4 µM.

And the IC50 (GST-UBA5; Table 5, n = 3, read-out: IC50)?
Its IC50 is 4 µM.

What about the “relative inhibitor activity against UBA5” value (GST-UBA5; comparison between series) of the same molecule?
Its value is “most potent zinc-coordinated complex”.

And the IC50 (GST-UBA5; read-out: IC50, inhibition of UFC1-UFM1 conjugate formation)?
Its IC50 is 4.1 µM and 4 µM.

What about the “intracellular NAE inhibition (NEDD8 labeling)” value [3] of the same molecule?
Its value is “no intracellular NAE inhibition”.

And the “intracellular NAE inhibition (NEDD8 labeling)” value [4]?
The value was “no intracellular NAE inhibition”.
